The text below walks through data of US10392366B2, “Azetidine compounds as GPR119 modulators for the treatment of diabetes, obesity, dyslipidemia and related disorders” (SANOFI, priority 2017, dated 2019).

This assay addresses T1, human GPR119 (Homo sapiens, UniProt Q8TDV5).
T1 construct: expressed in transfected cells
T1 sequence (Q8TDV5 1-335): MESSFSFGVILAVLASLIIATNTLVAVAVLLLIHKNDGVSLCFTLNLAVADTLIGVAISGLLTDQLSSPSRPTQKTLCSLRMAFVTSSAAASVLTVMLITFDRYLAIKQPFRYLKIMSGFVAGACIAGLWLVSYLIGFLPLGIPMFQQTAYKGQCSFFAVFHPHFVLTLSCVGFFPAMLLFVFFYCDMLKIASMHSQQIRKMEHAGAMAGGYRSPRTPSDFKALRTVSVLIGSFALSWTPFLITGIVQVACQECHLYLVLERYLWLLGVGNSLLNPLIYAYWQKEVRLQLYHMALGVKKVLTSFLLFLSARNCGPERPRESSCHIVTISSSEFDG
Put plainly: Functional cellular assay measuring GPR119-mediated cAMP release (HTRF) in HEK-293 cells stably expressing recombinant GPR119. It counts as cell-based. To be noted: cell line expressing human GPR119, 30 minutes at room temperature. Here is the method:
Functional Cellular Assays Measuring GPR119-mediated cAMP Release
Compounds of the present disclosure, which are agonists of GPR119, were characterized by functional assays measuring the cAMP response of HEK-293 cell lines stably expressing recombinant GPR119 from man, mouse or rat, or by using the hamster cell line HIT-T15 expressing GPR119 endogenously. The cAMP content was determined using a kit based on homogenous time-resolved fluorescence (HTRF) from Cisbio Corp. (cat. no. 62AM4PEC). For preparation, cells were split into T175 culture flasks and grown to near confluency in medium (DMEM/10% FCS for HEK-293 cells, and F-12K medium/10% horse serum/2.5% FCS for HIT-T15 cells, respectively). Medium was then removed and cells washed with PBS lacking calcium and magnesium ions, followed by proteinase treatment with accutase (Sigma-Aldrich, cat. no. A6964). Detached cells were washed and resuspended in assay buffer (1×HBSS; 20 mM HEPES, 0.1% BSA, 2 mM IBMX) and cellular density determined. They were then diluted to 400000 cells/mL and 25 μL-aliquots dispensed to the wells of 96-well plates. For measurement, 25 μL of test compound in assay buffer was added and incubated for 30 minutes at room temperature. After addition of HTRF reagents diluted in lysis buffer, the plates were incubated for 1 hour, followed by measuring the fluorescence ratio at 665 vs. 620 nm. Potency of the agonists was quantified by determining the concentrations that caused 50% of the maximal response/activation (EC50). See Table 6 for exemplary data obtained using the cell line expressing human GPR119.

Take `CC(=O)N1CCN(C(=O)C2CN(c3ncc(N4CC[C@@H](Oc5ccc(Oc6ccc(F)cc6)nc5)C4=O)cn3)C2)CC1` [Compound 4-08]: the EC50 (usually the concentration at which the effect is half-maximal) was found to be 1280 nM.

Consider `O=C(NC1CC1)C1CN(c2ncc(N3CC[C@@H](Oc4ccc(Oc5ccc(F)cc5)nc4)C3=O)cn2)C1` [Compound 4-09], for which the EC50 was found to be 1520 nM.

As to `O=C(C1CN(c2ncc(N3CC[C@@H](Oc4ccc(Oc5ccc(F)cc5)nc4)C3=O)cn2)C1)N1CCCC1` [Compound 4-10], the EC50 was determined as 437 nM.

On to `O=C(C1CN(c2ncc(N3CC[C@@H](Oc4ccc(Oc5ccc(F)cc5)nc4)C3=O)cn2)C1)N1CC(O)C1` [Compound 4-11], for which the EC50 came to 915 nM.

As for `O=C(NCCO)C1CN(c2ncc(N3CC[C@@H](Oc4ccc(Oc5ccc(F)cc5)nc4)C3=O)cn2)C1` [Compound 4-12], the EC50 was determined as 5750 nM.

`CCNC(=O)C1CN(c2ncc(N3CC[C@@H](Oc4ccc(OCC(F)(F)F)nc4)C3=O)cn2)C1` [Compound 4-13]: the 50% effective concentration (EC50) is 244 nM.

`CCN(CC)C(=O)C1CN(c2ncc(N3CC[C@@H](Oc4ccc(OCC(F)(F)F)nc4)C3=O)cn2)C1` [Compound 4-14]: the EC50 stood at 84 nM.

Consider `O=C(C1CN(c2ncc(N3CC[C@@H](Oc4ccc(OCC(F)(F)F)nc4)C3=O)cn2)C1)N1CCCC1` [Compound 4-15], for which the EC50 came out at 84 nM.

Turning to `CNCCOC(=O)C1CN(c2ncc(N3CC[C@@H](Oc4ccc(OCC(F)(F)F)nc4)C3=O)cn2)C1` [Compound 4-16], the EC50 was 213 nM.

On to `CN(CCO)C(=O)C1CN(c2ncc(N3CC[C@@H](Oc4ccc(OCC(F)(F)F)nc4)C3=O)cn2)C1` [Compound 4-17], for which the EC50 is 261 nM.

As for `CN(CC(N)=O)C(=O)C1CN(c2ncc(N3CC[C@@H](Oc4ccc(OCC(F)(F)F)nc4)C3=O)cn2)C1` [Compound 4-18], the EC50 came to 398 nM.

In the case of `CN(C(=O)C1CN(c2ncc(N3CC[C@@H](Oc4ccc(OCC(F)(F)F)nc4)C3=O)cn2)C1)C1CC1` [Compound 4-19], the EC50 amounted to 85 nM.

As to `CC(C)N(C)C(=O)C1CN(c2ncc(N3CC[C@@H](Oc4ccc(OCC(F)(F)F)nc4)C3=O)cn2)C1` [Compound 4-20], the EC50 came to 82 nM.

For the compound `NC(=O)C1CN(c2ncc(N3CC[C@@H](Oc4ccc(OCC(F)(F)F)nc4)C3=O)cn2)C1` [Compound 4-21], the EC50 was 245 nM.

As to `O=C(C1CN(c2ncc(N3CC[C@@H](Oc4ccc(OCC(F)(F)F)nc4)C3=O)cn2)C1)N1CCC1` [Compound 4-22], the EC50 came out at 116 nM.

Take `COCC(=O)NC1CN(c2ncc(N3CC[C@@H](Oc4ccc(OCC(F)(F)F)nc4)C3=O)cn2)C1` [Compound 4-23]: the EC50 was found to be 956 nM.

Consider `CC(=O)NC1CN(c2ncc(N3CC[C@@H](Oc4ccc(OCC(F)(F)F)nc4)C3=O)cn2)C1` [Compound 4-24], for which the EC50 is 1350 nM.

For `CNC(=O)C1CN(c2ccc(N3CC[C@@H](Oc4ccc(OCC(F)(F)F)nc4)C3=O)cn2)C1` [Compound 4-25], the EC50 was determined as 88 nM.

Consider `NC(=O)C1CN(c2ccc(N3CC[C@@H](Oc4ccc(OCC(F)(F)F)nc4)C3=O)cn2)C1` [Compound 4-26], for which the EC50 worked out at 101 nM.

Consider `[2H]C([2H])([2H])N(C(=O)C1CN(c2ncc(N3CC[C@@H](Oc4ccc(OCC(F)(F)F)nc4)C3=O)cn2)C1)C([2H])([2H])[2H]` [Compound 4-27], for which the EC50 was determined as 122 nM.

Take `NC(=O)OC1CN(c2ncc(N3CC[C@@H](Oc4ccc(OCC(F)(F)F)nc4)C3=O)cn2)C1` [Compound 5-01]: the EC50 stood at 458 nM.

As to `CN(C)C(=O)OC1CN(c2ncc(N3CC[C@@H](Oc4ccc(OCC(F)(F)F)nc4)C3=O)cn2)C1` [Compound 5-02], the EC50 came to 1030 nM.

Regarding `O=C1[C@H](Oc2ccc(OCC(F)(F)F)nc2)CCN1c1cnc(N2CC(n3cn[nH]c3=O)C2)nc1` [Compound 5-03], the EC50 was 663 nM.

On to `O=C(NCO)C1CN(c2ccc(N3CC[C@@H](Oc4ccc(OCC(F)(F)F)nc4)C3=O)cn2)C1` [Compound 5-04], for which the EC50 was 146 nM.

As for `CN(CO)C(=O)C1CN(c2ccc(N3CC[C@@H](Oc4ccc(OCC(F)(F)F)nc4)C3=O)cn2)C1` [Compound 5-05], the EC50 was determined as 67 nM.
